The values that follow come from ChEMBL document CHEMBL1201862, “PubChem BioAssay data set” (2004).

Molecules are shown by their SMILES.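 Cultured in 96-well plates, cells were exposed to test compound for 48 hours across five concentrations. Here, GI50 denotes the concentration required for 50% inhibition of growth.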 Active and inactive are the calls of the source. No stated cut-off is given here; in the data, active = GI50 up to about 1.1 µM and inactive = higher.

Some test systems named below: CAKI-1; DU-145; HCC 2998; HCT-116; HL-60; HOP-62; MDA-MB-435; MDA-N; Malme-3M; NCI-H23; NCI-H522; OVCAR-8; PC-3; RXF 393; SF-268; SF-295; SK-MEL-28; SNB-75; UACC-257; SR.
Holding throughout (test): NCI tumour cell line growth inhibition, 48 h

On to `COC(=O)c1ccc(/N=N/N(C)COc2ccc(C#N)cc2)cc1`, for which the GI50 in the assay with CAKI-1 was 69 µM (inactive); in the assay on DU-145 it was 40.4 µM (inactive); with HCC 2998, 62.1 µM (inactive); with HCT-116, 79.4 µM (inactive); with HL-60, 16.6 µM (inactive); in the assay on HOP-62, > 100 µM (inactive). The GI50 with MDA-MB-435 is 40.4 µM (inactive); in the assay on MDA-N it was > 100 µM (inactive); in the assay with Malme-3M, > 100 µM (inactive); in the assay on NCI-H23, > 100 µM (inactive); with NCI-H522 it was > 100 µM (inactive); in the assay on OVCAR-8, > 100 µM (inactive). In addition, the GI50 with PC-3 was > 100 µM (inactive); in the assay on RXF 393 it was 95.5 µM (inactive); with SF-268, > 100 µM (inactive); in the assay with SF-295, 44.8 µM (inactive); with SK-MEL-28 it was > 100 µM (inactive); in the assay with SNB-75, 49.2 µM (inactive). Also, in the assay with UACC-257, the GI50 is > 100 µM (inactive).
Take `Clc1ccc(COC(Cn2ccnc2)c2ccc(Cl)cc2Cl)c(Cl)c1` (centres undefined) [MICONAZOLE NITRATE]: the GI50 in the assay with CAKI-1 is 10.5 µM (inactive); in the assay on DU-145 it was 13 µM (inactive); in the assay with HCC 2998, 12.8 µM (inactive); in the assay with HCT-116, 5.3 µM (inactive); with HL-60 it was 3.48 µM (inactive); in the assay on HOP-62 it was 13.2 µM (inactive). The GI50 in the assay with MDA-MB-435 was 3.37 µM (inactive); with MDA-N, 3.89 µM (inactive); with Malme-3M, 12.5 µM (inactive); in the assay on NCI-H23, 8.15 µM (inactive); in the assay on NCI-H522 it was 8.2 µM (inactive); in the assay with OVCAR-8, 8.39 µM (inactive). For the same compound, the GI50 in the assay with PC-3 was 5.7 µM (inactive); in the assay with SF-268, 10.3 µM (inactive); in the assay on SF-295, 10.8 µM (inactive); with SK-MEL-28, 12.7 µM (inactive); in the assay on UACC-257 it was 11 µM (inactive).
With `COC(=O)C1=C(O)C(C(=O)OC)[C@]2(O)[C@H](C(=O)OC)[C@H]1C[C@@H](c1ccc([N+](=O)[O-])cc1)[C@H]2C(=O)OC` (some centres undefined), the GI50 in the assay with CAKI-1 was 28.6 µM (inactive); in the assay with DU-145 it was 34.7 µM (inactive); in the assay with HCT-116, 14.7 µM (inactive); in the assay with HL-60, 14.3 µM (inactive); in the assay with HOP-62, 34.6 µM (inactive); in the assay with MDA-MB-435 it was 11 µM (inactive). Further, the GI50 in the assay on MDA-N was 7.91 µM (inactive); in the assay with Malme-3M, 3.46 µM (inactive); in the assay on NCI-H23, 13.2 µM (inactive); with NCI-H522 it was 2.46 µM (inactive); in the assay on OVCAR-8 it was 17.6 µM (inactive); in the assay on PC-3, 13.9 µM (inactive). Besides, the GI50 is 14.7 µM (inactive) in the assay on RXF 393; 16.9 µM (inactive) in the assay on SF-268; 28.5 µM (inactive) with SF-295; 16.2 µM (inactive) in the assay on SK-MEL-28; 42.3 µM (inactive) with SNB-75; 34.1 µM (inactive) in the assay on UACC-257.
Consider `COc1ccc(N2C(=O)C3c4[nH]c5ccc(C)cc5c4C4CCC(C(C)C)CC4C3C2=O)cc1` (centres undefined), for which the GI50 in the assay on CAKI-1 is > 100 µM (inactive); in the assay with DU-145 it was > 100 µM (inactive); with HCC 2998 it was > 100 µM (inactive); in the assay on HCT-116 it was > 100 µM (inactive); with HOP-62 it was 45.4 µM (inactive); in the assay on MDA-MB-435, > 100 µM (inactive). Further, the GI50 in the assay with MDA-N was > 100 µM (inactive); with NCI-H23, > 100 µM (inactive); with NCI-H522, > 100 µM (inactive); in the assay with OVCAR-8, > 100 µM (inactive); in the assay with PC-3, > 100 µM (inactive); with SF-268 it was 75.5 µM (inactive). The GI50 with SF-295 was > 100 µM (inactive); with SK-MEL-28, > 100 µM (inactive); with SNB-75, 27.7 µM (inactive); in the assay on SR, > 100 µM (inactive); in the assay with UACC-257, > 100 µM (inactive).
With `Cc1ccc2c(=O)c(-c3n[nH]c(=S)s3)c[nH]c2n1`, the GI50 in the assay with CAKI-1, in the assay with DU-145, in the assay with HCT-116, in the assay on HL-60, in the assay with HOP-62 and with MDA-MB-435 was > 100 µM (inactive) each time. Besides, the GI50 in the assay with MDA-N was > 100 µM (inactive); in the assay with Malme-3M, > 100 µM (inactive); in the assay on NCI-H23 it was > 100 µM (inactive); in the assay with NCI-H522, 82.8 µM (inactive); with OVCAR-8 it was > 100 µM (inactive); in the assay with PC-3 it was > 100 µM (inactive). The GI50 with RXF 393, in the assay on SF-268, in the assay on SF-295, with SK-MEL-28 and in the assay with UACC-257 was > 100 µM (inactive) throughout.
Consider `O=C1C(c2ccccc2)=[N+]([O-])c2ccccc21`, for which the GI50 with DU-145 is 15.7 µM (inactive); with HCC 2998, 20 µM (inactive); with HCT-116 it was 5.78 µM (inactive); in the assay on HL-60, 14.9 µM (inactive); with HOP-62 it was 18.7 µM (inactive); in the assay on MDA-MB-435 it was 3.37 µM (inactive). Moreover, the GI50 in the assay with MDA-N is 3.29 µM (inactive); in the assay with Malme-3M it was 17.4 µM (inactive); with NCI-H23 it was 19.4 µM (inactive); with OVCAR-8 it was 18.6 µM (inactive); in the assay with PC-3 it was 11.6 µM (inactive); in the assay on SF-268 it was 14.1 µM (inactive). For the same compound, the GI50 in the assay with SF-295 was 17.4 µM (inactive); in the assay with SK-MEL-28, 17.1 µM (inactive); in the assay on SNB-75 it was 17 µM (inactive); in the assay on SR, 5.6 µM (inactive); with UACC-257 it was 13.3 µM (inactive).
`COc1cc2[nH]c(=O)c3cc(C)cc4c(Cl)nc(c1OC)c2c43`: the GI50 in the assay on CAKI-1 is 56.2 µM (inactive); in the assay with DU-145, 61.8 µM (inactive); with HCC 2998, > 100 µM (inactive); in the assay on HCT-116 it was 40.1 µM (inactive); in the assay with HL-60, 18.8 µM (inactive); in the assay on HOP-62, 23.6 µM (inactive). In addition, the GI50 in the assay on MDA-MB-435 was 57.3 µM (inactive); in the assay with MDA-N, > 100 µM (inactive); with Malme-3M, 18 µM (inactive); with NCI-H23, 85.5 µM (inactive); with NCI-H522, 36.3 µM (inactive); in the assay with OVCAR-8, 95.9 µM (inactive). In addition, the GI50 in the assay with PC-3 was > 100 µM (inactive); in the assay on RXF 393, 21 µM (inactive); in the assay on SF-268, 20.4 µM (inactive); in the assay on SF-295 it was 43.7 µM (inactive); with SK-MEL-28, > 100 µM (inactive); in the assay with SNB-75, 22.9 µM (inactive). In the assay with UACC-257, the GI50 is > 100 µM (inactive).
As to `Cc1ccc(I)cc1N=C=S`, the GI50 in the assay on CAKI-1 is 24.9 µM (inactive); in the assay on DU-145 it was 28.3 µM (inactive); with HCT-116, 29.8 µM (inactive); in the assay on HL-60 it was 21.6 µM (inactive); in the assay on HOP-62, 26.1 µM (inactive); with MDA-MB-435, 23.1 µM (inactive). For the same compound, the GI50 is 27.9 µM (inactive) with MDA-N; 25.1 µM (inactive) in the assay with Malme-3M; 19.9 µM (inactive) in the assay with NCI-H23; 17.2 µM (inactive) in the assay on NCI-H522; 38.4 µM (inactive) in the assay with OVCAR-8; 20.3 µM (inactive) in the assay on PC-3. Moreover, the GI50 in the assay on RXF 393 was 20.2 µM (inactive); in the assay on SF-268, 27.6 µM (inactive); in the assay on SF-295, 26.9 µM (inactive); with SK-MEL-28, 20.2 µM (inactive); in the assay on SNB-75, 21.2 µM (inactive); in the assay on UACC-257, 25 µM (inactive).
As to `O=C1C=C(N2CCN(CCOCCO)CC2)C(=O)c2c(O)ccc(O)c21`, the GI50 in the assay with CAKI-1 is 15.7 µM (inactive); with DU-145, 3.42 µM (inactive); with HCC 2998, 2.7 µM (inactive); in the assay on HCT-116 it was 2.02 µM (inactive); in the assay on HL-60, 2.52 µM (inactive); in the assay with HOP-62, 17.9 µM (inactive). In addition, the GI50 with MDA-MB-435 was 1.82 µM (inactive); with MDA-N, 1.84 µM (inactive); in the assay on Malme-3M, 1.52 µM (inactive); in the assay on NCI-H23 it was 2.21 µM (inactive); in the assay on NCI-H522, 2.9 µM (inactive); with OVCAR-8, 3.44 µM (inactive). The GI50 was 3.07 µM (inactive) in the assay on PC-3; 13.2 µM (inactive) in the assay on RXF 393; 17.3 µM (inactive) in the assay on SF-268; 14 µM (inactive) in the assay with SF-295; 17.1 µM (inactive) in the assay on SK-MEL-28; 16.6 µM (inactive) in the assay with SNB-75. In the assay on UACC-257, the GI50 is 1.62 µM (inactive).
In the case of `COC(c1ccsc1)C(C#N)(C#N)/N=C/c1ccsc1` (centres undefined), the GI50 in the assay on CAKI-1 was 4.68 µM (inactive); in the assay with DU-145, 15.2 µM (inactive); with HCC 2998 it was 19.8 µM (inactive); in the assay on HCT-116 it was 12.8 µM (inactive); in the assay on HL-60, 3.18 µM (inactive); with HOP-62, 17.4 µM (inactive). For the same compound, the GI50 was 15.5 µM (inactive) in the assay with MDA-MB-435; 16 µM (inactive) in the assay on MDA-N; 15.3 µM (inactive) with Malme-3M; 13.1 µM (inactive) with NCI-H23; 6.73 µM (inactive) in the assay on NCI-H522; 18.1 µM (inactive) in the assay with OVCAR-8. The GI50 in the assay on PC-3 is 14 µM (inactive); in the assay on RXF 393 it was 12.7 µM (inactive); in the assay with SF-268 it was 16.1 µM (inactive); with SF-295, 18.1 µM (inactive); with SK-MEL-28, 18.6 µM (inactive); in the assay with SNB-75 it was 15.1 µM (inactive). For the same compound, the GI50 in the assay with UACC-257 is 14.7 µM (inactive).
As for `COC1=Nc2ccccc2S(=O)(=O)C=C1`, the GI50 in the assay on CAKI-1 is 13.3 µM (inactive); in the assay on DU-145, 16.8 µM (inactive); in the assay on HCC 2998, 21.4 µM (inactive); in the assay with HCT-116, 1.74 µM (inactive); in the assay with HL-60 it was 0.195 µM (active); with HOP-62, 43.3 µM (inactive). Further, the GI50 in the assay on MDA-MB-435 was 11.4 µM (inactive); in the assay with MDA-N it was 7.4 µM (inactive); in the assay on Malme-3M, 2.5 µM (inactive); in the assay on NCI-H23, 6.35 µM (inactive); in the assay with NCI-H522 it was 1.21 µM (inactive); with OVCAR-8 it was 4.35 µM (inactive). Moreover, the GI50 in the assay on PC-3 was 15 µM (inactive); with RXF 393, 2.69 µM (inactive); in the assay on SF-268, 20.8 µM (inactive); in the assay with SF-295 it was > 45.4 µM (inactive); in the assay with SK-MEL-28 it was 7.01 µM (inactive); in the assay on SNB-75, 2.31 µM (inactive). For the same compound, in the assay on UACC-257, the GI50 was 7.69 µM (inactive).
